From the NIST ThermoML archive (doi:10.1016/j.jct.2011.04.022)
Values joined by “and” are separate entries in the source; they are usually repeats but may differ in a detail not shown here. Identical values can stand only once. Numbers after ± are expanded uncertainties.

Assays:
[1] = Crystal, Calculated from knudsen effusion weight loss
[2] = molar enthalpy of vaporization or sublimation; settings: 298.15 K; Crystal; Second Law analysis of vapor pressure data

Nc1ccccc1-n1cccc1 [1-(2-aminophenyl)pyrrole]
[1]
Settings	vapor or sublimation pressure
296.12 K	6.43e-05 ± 3.2e-06 kPa and 6.33e-05 ± 3.2e-06 kPa and 6.58e-05 ± 3.3e-06 kPa
298.22 K	8.56e-05 ± 4.3e-06 kPa and 8.51e-05 ± 4.3e-06 kPa and 8.36e-05 ± 4.2e-06 kPa
300.2 K	0.000112 ± 6e-06 kPa and 0.000108 ± 5e-06 kPa and 0.000107 ± 5e-06 kPa
302.11 K	0.000137 ± 7e-06 kPa and 0.000144 ± 7e-06 kPa
304.19 K	0.000179 ± 9e-06 kPa and 0.000182 ± 9e-06 kPa and 0.000178 ± 9e-06 kPa
306.19 K	0.00024 ± 1.2e-05 kPa and 0.000228 ± 1.1e-05 kPa and 0.000227 ± 1.1e-05 kPa
308.08 K	0.000301 ± 1.5e-05 kPa and 0.0003 ± 1.5e-05 kPa and 0.000297 ± 1.5e-05 kPa
310.2 K	0.000388 ± 1.9e-05 kPa and 0.000386 ± 1.9e-05 kPa and 0.000377 ± 1.9e-05 kPa
312.2 K	0.000503 ± 2.5e-05 kPa and 0.000481 ± 2.4e-05 kPa and 0.00048 ± 2.4e-05 kPa
314.11 K	0.000643 ± 3.2e-05 kPa and 0.000635 ± 3.2e-05 kPa and 0.000623 ± 3.1e-05 kPa
316.18 K	0.000816 ± 4.1e-05 kPa and 0.000808 ± 4e-05 kPa and 0.000788 ± 3.9e-05 kPa
318.18 K	0.001059 ± 0.00011 kPa and 0.001011 ± 0.0001 kPa and 0.000991 ± 5e-05 kPa

Settings	molar enthalpy [kcal/mol]
[2]	23.61 ± 0.191
